This note sets out measurements from patent publication US20250282749A1 (Tango Therapeutics, Inc., priority 2022, published 2025).

Holding throughout (type): cell-based
In test [1] the test system is HAP1 MTAP-deleted cell line. The test can be described thus: viability assay for the MTAP-deleted cell line. The note with it: Homo sapiens.
The subject of test [2] is PRMT5 (SDMA) in HAP1 MTAP-intact cell line. The test can be described thus: SDMA in-cell western assay, HAP1 MTAP-intact cell line. The note with it: Homo sapiens, HAP1 MTAP-intact cell line (endogenous MTAP), read-out: Hap 1 MTAP intact IC50. From the text:
(§1) HAP1 MTAP-intact is a cell line in which endogenous levels of MTAP are expressed, and HAP1 MTAP-deleted is an MTAP-null cell line.

Test [3] concerns PRMT5 (SDMA) in HAP1 MTAP-deleted cell line. The test is described as follows: SDMA in-cell western assay, HAP1 MTAP-deleted cell line. Particulars: for pIC50 / IC90: Homo sapiens, SDMA in-cell western, HAP1 MTAP-deleted (MTAP-null) cell line; for Hap1 MTAP intact/deleted ratio: ratio of SDMA in-cell western IC50 in HAP1 MTAP-intact to IC50 in HAP1 MTAP-deleted cell line.
Excerpt: as §1

pIC50: −log10 of the molar value.

Broadly, the pIC50 is the negative decadic logarithm of the IC50, by convention in mol/L. Usually IC90 stands for the point of the concentration-response curve where the effect stands at 90%.

`CC(C)C(=O)N1C[C@H](c2ccc(F)cc2)N(C(=O)C(=O)Nc2cnc(N)c(C3CC3)c2)C[C@H]1C` [Compound 86, N-(6-amino-5-cyclopropylpyridin-3-yl)-2-((2S,5R)-2-(4-fluorophenyl)-4-isobutyryl-5-methylpiperazin-1-yl)-2-oxoacetamide]: the pIC50 is more than 7.00 in test [1], less than 7.30 in test [2] and 7.30 to 8.30 in test [3]. Moreover, the IC90 in test [3] is less than 75 nM. For the same molecule, the “Hap1 MTAP intact/deleted ratio” value in test [3] is “C (an IC50 ratio of less than 15 fold)”.
On the same counts, the results for `CCc1cc(NC(=O)C(=O)N2C[C@@H](C)N(C(=O)C(C)C)C[C@@H]2c2ccc(F)c(Cl)c2)cnc1N` [Compound 87, N-(6-amino-5-ethylpyridin-3-yl)-2-((2S,5R)-2-(3-chloro-4-fluorophenyl)-4-isobutyryl-5-methylpiperazin-1-yl)-2-oxoacetamide] are more than 7.00, less than 7.30, more than 8.30, more than 125 nM and “A (an IC50 ratio greater than or equal to 30 fold)”.
In test [1], `COc1ncc(NC(=O)C(=O)N2C[C@H](C)N(C(=O)C(C)C)C[C@H]2c2ccc(F)cc2)cc1C(N)=O` [Compound 88, 5-[[2-[(2R,5S)-2-(4-fluorophenyl)-5-methyl-4-(2-methylpropanoyl)piperazin-1-yl]-2-oxo-acetyl]amino]-2-methoxy-pyridine-3-carboxamide] showed a pIC50 of less than 6.00. In addition, the pIC50 in test [2] was less than 7.30. For the same molecule, in test [3], the pIC50 was less than 7.30, the IC90 was more than 125 nM and the “Hap1 MTAP intact/deleted ratio” value is reported as “C (an IC50 ratio of less than 15 fold)”.
As for `CCc1cc(NC(=O)C(=O)N2C[C@@H](C)N(C(=O)C(C)C)C[C@@H]2c2ccc(N3CCN(C)CC3)cc2)cnc1N` [Compound 89, N-(6-amino-5-ethylpyridin-3-yl)-2-((2S,5R)-4-isobutyryl-5-methyl-2-(4-(4-methylpiperazin-1-yl)phenyl)piperazin-1-yl)-2-oxoacetamide], the values for the negative-log IC50 (pIC50) in test [1], in test [2] and in test [3] were more than 7.00, less than 7.30 and more than 8.30, respectively. The molecule further returned an IC90 in test [3] of less than 75 nM. Further, the “Hap1 MTAP intact/deleted ratio” value in test [3] was “A (an IC50 ratio greater than or equal to 30 fold)”.
Regarding `Cc1cc(NC(=O)C(=O)N2C[C@@H](C)N(C(=O)C(C)C)C[C@@H]2c2cccc(Cl)c2)cnc1N` [Compound 90, N-(6-amino-5-methylpyridin-3-yl)-2-((2S,5R)-2-(3-chlorophenyl)-4-isobutyryl-5-methylpiperazin-1-yl)-2-oxoacetamide], the pIC50 in test [1] was more than 7.00. For the same molecule, the pIC50 in test [2] was less than 7.30. For the same molecule, in test [3], the pIC50 was 7.30 to 8.30, the IC90 is more than 125 nM and the “Hap1 MTAP intact/deleted ratio” value is recorded as “B (an IC50 ratio greater than or equal to 15 fold but lower than 30 fold)”.
In the same order, the values of `C[C@@H]1CN(C(=O)C(=O)Nc2cncc3cn[nH]c23)[C@@H](c2ccccc2)CN1C(=O)C1(C)CC1` [Compound 91, 2-((2S,5R)-5-methyl-4-(1-methylcyclopropanecarbonyl)-2-phenylpiperazin-1-yl)-2-oxo-N-(1H-pyrazolo[4,3-c]pyridin-7-yl)acetamide] are more than 7.00, less than 7.30, 7.30 to 8.30, more than 125 nM and “B (an IC50 ratio greater than or equal to 15 fold but lower than 30 fold)”.
On the same counts, the results for `CC(C)C(=O)N1C[C@H](c2ccc3scnc3c2)N(C(=O)C(=O)Nc2cnc(N)c(C3CC3)c2)C[C@H]1C` [Compound 93, N-(6-amino-5-cyclopropyl-3-pyridyl)-2-[(2S,5R)-2-(1,3-benzothiazol-5-yl)-5-methyl-4-(2-methylpropanoyl)piperazin-1-yl]-2-oxo-acetamide] are more than 7.00, 7.30 to 8.30, 7.30 to 8.30, less than 75 nM and “C (an IC50 ratio of less than 15 fold)”.
In test [1], `C[C@@H]1CN(C(=O)C(=O)Nc2cnc(N)c(C3CC3)c2)[C@@H](c2ccccc2)CN1C(=O)C1(C)CC1` [Compound 94, N-(6-amino-5-cyclopropylpyridin-3-yl)-2-((2S,5R)-5-methyl-4-(1-methylcyclopropanecarbonyl)-2-phenylpiperazin-1-yl)-2-oxoacetamide] showed a pIC50 of more than 7.00. Moreover, in test [2], the pIC50 is less than 7.30. In test [3], the pIC50 is more than 8.30, the IC90 fell in the range of 75 to 125 nM and the “Hap1 MTAP intact/deleted ratio” value was “B (an IC50 ratio greater than or equal to 15 fold but lower than 30 fold)”.
In the same order, the values of `CCc1cc(NC(=O)C(=O)N2C[C@@H](C)OC[C@@H]2c2ccc3sc(C4CCN(C)CC4)nc3c2)cnc1N` [Compound 96] are more than 7.00, less than 7.30, 7.30 to 8.30, 75 to 125 nM and “B (an IC50 ratio greater than or equal to 15 fold but lower than 30 fold)”.
In the same order, the values of `C[C@@H]1CN(C(=O)C(=O)Nc2cnc(N)c(C3CC3)c2)[C@@H](c2ccccc2)CN1C(=O)C(C)(C)C` [Compound 97, N-(6-amino-5-cyclopropylpyridin-3-yl)-2-((2S,5R)-5-methyl-2-phenyl-4-pivaloylpiperazin-1-yl)-2-oxoacetamide] are more than 7.00, 7.30 to 8.30, more than 8.30, less than 75 nM and “C (an IC50 ratio of less than 15 fold)”.
As for `CC(C)C(=O)N1C[C@H](c2ccccc2)N(C(=O)C(=O)Nc2cnc(N)c(C3CC3)c2)C[C@H]1C` [Compound 98, N-(6-amino-5-cyclopropylpyridin-3-yl)-2-((2S,5R)-4-isobutyryl-5-methyl-2-phenylpiperazin-1-yl)-2-oxoacetamide], the pIC50 was more than 7.00 in test [1], less than 7.30 in test [2] and 7.30 to 8.30 in test [3]. In addition, in test [3], the IC90 is 75 to 125 nM. For the same molecule, the “Hap1 MTAP intact/deleted ratio” value in test [3] was “C (an IC50 ratio of less than 15 fold)”.
In the same order, the values of `Cc1cc(NC(=O)C(=O)N2C[C@@H](C)N(C(=O)C(C)(C)C)C[C@@H]2c2ccccc2)cnc1N` [Compound 99, N-(6-amino-5-methylpyridin-3-yl)-2-((2S,5R)-5-methyl-2-phenyl-4-pivaloylpiperazin-1-yl)-2-oxoacetamide] are more than 7.00, 7.30 to 8.30, more than 8.30, less than 75 nM and “C (an IC50 ratio of less than 15 fold)”.
In the same order, the values of `C[C@@H]1CN(C(=O)C(=O)Nc2cncc3cn[nH]c23)[C@@H](c2ccccc2)CN1C(=O)C1(C(F)(F)F)CC1` [Compound 100, 2-((2S,5R)-5-methyl-2-phenyl-4-(1-(trifluoromethyl)cyclopropanecarbonyl)piperazin-1-yl)-2-oxo-N-(1H-pyrazolo[4,3-c]pyridin-7-yl)acetamide] are more than 7.00, less than 7.30, 7.30 to 8.30, more than 125 nM and “C (an IC50 ratio of less than 15 fold)”.
On the same counts, the results for `Cc1cc(NC(=O)C(=O)N2C[C@@H](C)N(C(=O)OC(C)(C)C)C[C@@H]2c2ccc(F)cc2)cnc1N` [Compound 101] are more than 7.00, less than 7.30, more than 8.30, less than 75 nM and “B (an IC50 ratio greater than or equal to 15 fold but lower than 30 fold)”.
As for `CCc1cc(NC(=O)C(=O)N2C[C@@H](C)N(C(=O)C3(C)CC3)C[C@@H]2c2ccc(N3CCN(C)CC3)cc2)cnc1N` [Compound 105, N-(6-amino-5-ethylpyridin-3-yl)-2-((2S,5R)-5-methyl-4-(1-methylcyclopropanecarbonyl)-2-(4-(4-methylpiperazin-1-yl)phenyl)piperazin-1-yl)-2-oxoacetamide], the pIC50 in test [1] is more than 7.00; in test [2] it was less than 7.30; in test [3], more than 8.30. This molecule displayed an IC90 in test [3] of less than 75 nM. In addition, in test [3], the “Hap1 MTAP intact/deleted ratio” value was “B (an IC50 ratio greater than or equal to 15 fold but lower than 30 fold)”.
On the same counts, the results for `C[C@@H]1CN(C(=O)C(=O)Nc2cnc(N)c3cn[nH]c23)[C@@H](c2ccccc2)CO1` [Compound 107] are 6.00 to 7.00, less than 7.30, more than 8.30, less than 75 nM and “A (an IC50 ratio greater than or equal to 30 fold)”.
In the same order, the values of `Cc1cc(NC(=O)C(=O)N2C[C@@H](C)N(C(=O)C(C)(C)CN3CCn4ccnc4C3)C[C@@H]2c2ccccc2)cnc1N` [Compound 109] are 6.00 to 7.00, less than 7.30, 7.30 to 8.30, more than 125 nM and “C (an IC50 ratio of less than 15 fold)”.
In turn, `CCc1cc(NC(=O)C(=O)N2C[C@@H](C)N(C(=O)C(C)(C)C)C[C@@H]2c2cccc(N3CCN(C)CC3)c2)cnc1N` [Compound 110, N-(6-amino-5-ethylpyridin-3-yl)-2-((2S,5R)-5-methyl-2-(3-(4-methylpiperazin-1-yl)phenyl)-4-pivaloylpiperazin-1-yl)-2-oxoacetamide] had a pIC50 in test [1] of more than 7.00. Further, in test [2], the negative logarithm of the IC50 (pIC50) was more than 8.30. For the same molecule, in test [3], the pIC50 was more than 8.30, the IC90 was less than 75 nM and the “Hap1 MTAP intact/deleted ratio” value is “C (an IC50 ratio of less than 15 fold)”.
